Assay results as given in US4071559A, “Pharmaceutically active 2-omega-aminoalkoxydiphenyls” (Mitsubishi Chemical Industries Limited, priority 1975, dated 1978).
Structures can show the parent of a compound that is named as a salt.

Assays:
[1] = system: reserpine induced hypothermia; test: Antagonism of reserpine induced hypothermia in mice (antireserpine / antidepressant activity); assay type: in vivo; details: i.p.; for Antireserpine activity, Relative Potency: reserpine 5 mg/kg i.p., Amitriptyline = 1
Description: (§1) The compounds were administered intraperitoneally and the activities of the compounds were compared with those of Amitriptyline.

[2] = system: electroshock induced tonic extensor; test: Antagonism of electroshock induced tonic extensor (anticonvulsant activity); assay type: in vivo; details: Mus musculus, ip; mice; dose which prevents 50% of response
[3] = system: neurological deficit; test: Traction test (neurological deficit; muscle relaxant action; CNS depressant activity); assay type: in vivo; details: mice; for ED50: Mus musculus, ip, traction test
[4] = system: spontaneous motor activity; test: Spontaneous motor activity by ANIMEX apparatus (CNS depressant activity); assay type: in vivo; details: Mus musculus, ip, mice, i.p., read-out: Spontaneous Motor Activity Depression ED50
[5] = system: tremorine induced tremor; test: Tremorine induced tremor in mice (central anticholinergic effect); assay type: in vivo; details: for ED50: Mus musculus, ip, tremorine induced tremor, read-out: Antitremorine Effect ED50
Description: as §1

[6] = in vivo; details: mouse, ip
[7] = system: mice; details: i.p., compared with Amitriptyline

Compound	Antireserpine activity, Relative Potency [1]	ED50 [2]	ED50 [3]	ED50 [4]	ED50 [5]	LD50 [6]	antireserpine activity (in words) ([1]; compared with Amitriptyline)	CNS depressant action (in words) ([3]; i.p., traction test and spontaneous motor activity)	anticholinergic action (in words) ([5]; i.p., compared with Amitriptyline)	toxicity (in words) [7]
NCCCCOc1ccccc1-c1ccccc1 [2-(4-aminobutoxy)diphenyl hydrochloride]	0.59	14 mg/kg	50 mg/kg	40 mg/kg	60 mg/kg	137 mg/kg	–	–	–	–
CN(C)CCCCOc1ccccc1-c1ccccc1 [2-(4-dimethylaminobutoxy)diphenyl hydrochloride]	0.45	–	–	–	–	100 mg/kg	–	–	–	–
CNCCCCOc1ccccc1-c1ccccc1 [2-(4-methylaminobutoxy)diphenyl hydrochloride]	0.99	14 mg/kg	40 mg/kg	30 mg/kg	20 mg/kg	78 mg/kg	comparable to that of Amitriptyline	weak	weak	low toxicity
